Earlier results as cited in patent publication US10466148B2, “Use of platinum wire electrode and synthetic fiber for flow assisted electro-enhanced solid phase microextraction” (KING FAHD UNIVERSITY OF PETROLEUM AND MINERALS, priority 2015, dated 2019).

Experiments:
[1] = not given; remark: listed apart in the source
[2] = not given; remark: listed apart in the source
[3] = not given; remark: listed apart in the source

SMILES | Henry's law constant at 20° C. | Diffusion coefficient in air [1] | Diffusion coefficient in water [2] | Vapor pressure at 20-25° C. [3]
Brc1ccc(Oc2ccccc2)cc1 [BPPE, 4-bromophenyl phenyl ether] | 0.009 | 0.047 cm^2 s^−1 | 6.27E−06 cm^2 s^−1 | 0.0005 mmHg
Clc1ccc(Oc2ccccc2)cc1 [CPPE, 4-chlorophenyl phenyl ether] | 0.012 | 0.048 cm^2 s^−1 | 6.18E−06 cm^2 s^−1 | 0.0016 mmHg
